Measured values as given in patent US20190152993A1, “Reversibly Switchable Surfactants and Methods of Use” (WARNER BABCOCK INSTITUTE FOR GREEN CHEMISTRY, LLC, priority 2016, published 2019).
Marks after values point to notes of the source that are not given here.

How the values were obtained:
[1] = Lifetimes (half-life) of the activated merocyanine surfactants in solvents; format: physicochemical; conditions: error limits 10-20%
Method: Lifetimes of the activated zwitterionic merocyanine isomers of compounds 4a, 4b, 4c, and 4e in several solvents were determined.
The spiropyran compound 4 was added to a solvent in a 1-cm quartz cuvette and the cuvette was irradiated with ultraviolet light at 365 nm for ˜60 seconds. […] Absorption spectra were recorded from 450 to 650 nm every 5 seconds over a 350-second observation time. The concentrations of the merocyanine were adjusted so that the initial t=0 absorbance at the absorption maximum (λmax) was in the range of 1-1.4. All kinetics experiments were done in triplicate once an appropriate spiropyran/merocyanine surfactant concentration was determined. The absorbances at λmax were normalized to the highest value, and the three data sets averaged to give the normalized absorbances as a function of time. If the normalized absorbance had dropped to at least 0.5 during the 350-s monitoring time, the half-life was taken as the time at which the normalized absorbance had reached 0.5.

[2] = Separate experiment: solubility of palmitic acid in hexanes with switchable surfactant activation; format: physicochemical; conditions: 1 mg/mL surfactant
Source text: The second vial was exposed to 365-nm ultraviolet light that activated the surfactant; the solution turned magenta due to the color of the merocyanine.

[3] = in acetone, after 365 nm irradiation
[4] = in cyclohexane, after 365 nm irradiation
[5] = in ethanol, longer than 350 s monitoring, by extrapolation of exponential fit
[6] = in ethyl acetate, after 365 nm irradiation
[7] = in methanol, longer than 350 s monitoring, by extrapolation of exponential fit
[8] = in octanol, longer than 350 s monitoring, by extrapolation of exponential fit
[9] = in toluene, after 365 nm irradiation

SMILES	Merocyanine Half-life [1, 3] [s]	Merocyanine Half-life [1, 4] [s]	Merocyanine Half-life [1, 5] [s]	Merocyanine Half-life [1, 6] [s]	Merocyanine Half-life [1, 7]	Merocyanine Half-life [1, 8] [s]	Merocyanine Half-life [1, 9] [s]	reversibility after UV-treated solution placed in the dark ([2]; 53 mg/mL palmitic acid)	palmitic acid dissolved with activated surfactant ([2]; 53 mg/mL palmitic acid charged, 365-nm ultraviolet light) [mg/mL]	dissolution of palmitic acid with ground-state surfactant ([2]; 53 mg/mL palmitic acid charged, kept in the dark)
C[N+]1=C(/C=C/c2cc([N+](=O)[O-])ccc2[O-])C(C)(C)c2ccccc21 [5a]	103	14	1200	19	4900 s	610	16	–	–	–
CCCCCCCC[N+]1=C(/C=C/c2cc([N+](=O)[O-])ccc2[O-])C(C)(C)c2ccccc21 [5c]	153	40	1500	20	>10^4‡ seconds	610	38	–	–	–
CCCC[N+]1=C(/C=C/c2cc([N+](=O)[O-])ccc2[O-])C(C)(C)c2ccccc21 [5b]	130	44	1300	23	23000 s	610	32	–	–	–
CCCCCCCCCCCCCCCCCCN1c2ccccc2C(C)(C)C12C=Cc1cc([N+](=O)[O-])ccc1O2 (stereo not shown) [4e, 3′,3′-Dimethyl-6-nitro-1′-octadecylspiro[chromene-2,2′-indoline]]	–	–	–	–	–	–	–	precipitate began to form	53	not fully dissolved
CCCCCCCCCCCCCCCCCC[N+]1=C(/C=C/c2cc([N+](=O)[O-])ccc2[O-])C(C)(C)c2ccccc21 [5e]	114	40	1450	20	11000 s	830	49	–	–	–
